Measurements from patent EP0745599A2, “1-(3-Heterocyclylphenyl)-s-triazine-2,4,6-oxo or thiotrione herbicidal agents” (American Cyanamid Company, priority 1995, dated 1996).

Experiments:
Assay type in all cases: in vivo
Details in all cases: rated four to five weeks after treatment
[1] = system: ORYZA SATIVA, L. TEBONNET; test: Preemergence herbicidal evaluation, ORYSAT (Rice, Tebonnet)
Text: (§1) Results of herbicide evaluation are expressed on a rating scale (0-9). The scale is based upon a visual observation of plant stand, vigor, malformation, size, chlorosis and overall plant appearance as compared with a control.
(§2) The preemergence herbicidal activity of the test compounds of the present invention is exemplified by the following tests in which the seeds of a variety of monocotyledonous and dicotyledonous plants are separately mixed with potting soil and planted on top of approximately one inch of soil in separate pint cups. After planting, the cups are sprayed with the selected aqueous acetone solution containing test compound in sufficient quantity to provide the equivalent of about 0.125 to 0.50 kg per hectare of test compound per cup. The treated cups are then placed on greenhouse benches, watered and cared for in accordance with conventional greenhouse procedures. From four to five weeks after treatment, the tests are terminated and each cup is examined and rated according to the rating system provided in Example 42.

[2] = system: TRITICUM AESTIVUM, CV. APOLLO; test: Preemergence herbicidal evaluation, TRZAWO (Wheat, Winter, CV. APOLLO)
Text: as §1, §2

[3] = system: GLYCINE MAX(L)MERR. CV. WILLIAMS; test: Preemergence herbicidal evaluation, GLXMAW (Soybean, Williams)
Text: as §1, §2

GALIUM APARINE = test: Preemergence herbicidal evaluation, GALAP (Galium)
Text: as §1, §2

CHENOPODIUM ALBUM, L. = test: Preemergence herbicidal evaluation, CHEAL (Lambsquarters, Common)
Text: as §1, §2

ZEA MAYS L. = test: Preemergence herbicidal evaluation, ZEAMX (Corn, Field)
Text: as §1, §2

[4] = system: ABUTILON THEOPHRASTI, MEDIC.; test: Postemergence herbicidal evaluation, ABUTH (Velvetleaf)
Experimental: In the tests, seedling plants are grown in jiffy flats for about two weeks. The test compounds are dispersed in 50/50 acetone/water mixtures containing 0.5% TWEEN®20, a polyoxyethylene sorbitan monolaurate surfactant of Atlas Chemical Industries, in sufficient quantities to provide the equivalent of about 0.125 kg to 0.500 kg per hectare of active compound when applied to the plants through a spray nozzle operating at 40 psi for a predetermined time. After spraying, the plants are placed on greenhouse benches and are cared for in the usual manner, commensurate with conventional greenhouse practices. From four to five weeks after treatment, the seedling plants are examined and rated according to the rating system set forth below. Where more than one test is involved for a given compound, the data are averaged.
as §1

[5] = system: SETARIA VIRIDIS, (L) BEAU; test: Preemergence herbicidal evaluation, SETVI (Foxtail, Green)
Text: as §1, §2

[6] = system: ECHINOCHLOA CRUS-GALLI, (L) BEAU; test: Preemergence herbicidal evaluation, ECHCG (Barnyardgrass)
Text: as §1, §2

IPOMOEA SPP. = test: Preemergence herbicidal evaluation, IPOSS (Morningglory Spp.)
Text: as §1, §2

Structure (SMILES) | Herbicide rating (0-9) TRZAWO ([2]; 0.125 kg/ha) | Herbicide rating (0-9) TRZAWO ([2]; 0.250 kg/ha) | Herbicide rating (0-9) TRZAWO ([2]; 0.500 kg/ha) | Herbicide rating (0-9) GLXMAW ([3]; 0.125 kg/ha) | Herbicide rating (0-9) GLXMAW ([3]; 0.250 kg/ha) | Herbicide rating (0-9) GLXMAW ([3]; 0.500 kg/ha) | Herbicide rating (0-9) CHEAL (CHENOPODIUM ALBUM, L.; 0.125 kg/ha) | Herbicide rating (0-9) CHEAL (CHENOPODIUM ALBUM, L.; 0.250 kg/ha) | Herbicide rating (0-9) CHEAL (CHENOPODIUM ALBUM, L.; 0.500 kg/ha) | Herbicide rating (0-9) ABUTH ([4]; 0.125 kg/ha) | Herbicide rating (0-9) ABUTH ([4]; 0.250 kg/ha) | Herbicide rating (0-9) ABUTH ([4]; 0.500 kg/ha) | also measured
COC(=O)Cn1c(=O)n(C)c(=O)n(-c2cc(N3C(=O)C4=C(CCCC4)C3=O)c(F)cc2Cl)c1=O [Compound 1, Methyl 3-[2-Chloro-5-(1-cyclohexene-1,2-dicarboximido)-4-fluorophenyl]tetrahydro-5-methyl-2,4,6-trioxo-s-triazine-1(2H)-acetate] | 0.0 | 0.0 | 0.0 | 0.0 | 0.0 | 0.0 | 9.0 | 9.0 | 9.0 | 9.0 | 9.0 | 9.0 | Herbicide rating (0-9) ORYSAT ([1]; 0.125 kg/ha): 0.0; Herbicide rating (0-9) ORYSAT ([1]; 0.250 kg/ha): 0.0; Herbicide rating (0-9) ORYSAT ([1]; 0.500 kg/ha): 0.0; Herbicide rating (0-9) GALAP (GALIUM APARINE; 0.250 kg/ha): 0.0; Herbicide rating (0-9) GALAP (GALIUM APARINE; 0.500 kg/ha): 0.0; Herbicide rating (0-9) ZEAMX (ZEA MAYS L.; 0.125 kg/ha): 0.0; Herbicide rating (0-9) ZEAMX (ZEA MAYS L.; 0.250 kg/ha): 0.0; Herbicide rating (0-9) ZEAMX (ZEA MAYS L.; 0.500 kg/ha): 0.0
Cn1c(=O)n(CC(=O)OC(C)(C)C)c(=O)n(-c2cc(N3C(=O)C4=C(CCCC4)C3=O)c(F)cc2Cl)c1=O [Compound 2, Tert-butyl 3-[2-chloro-5-(1-cyclohexene-1,2-dicarboximido)-4-fluorophenyl]tetrahydro-5-methyl-2,4,6-trioxo-s-triazine-1(2H)-acetate] | 1.0 | 1.0 | 1.0 | 0.0 | 0.0 | 0.0 | 9.0 | 9.0 | 9.0 | 9.0 | 9.0 | 9.0 | Herbicide rating (0-9) SETVI ([5]; 0.125 kg/ha): 0.0; Herbicide rating (0-9) SETVI ([5]; 0.250 kg/ha): 0.0; Herbicide rating (0-9) SETVI ([5]; 0.500 kg/ha): 0.0; Herbicide rating (0-9) ECHCG ([6]; 0.125 kg/ha): 0.0; Herbicide rating (0-9) ECHCG ([6]; 0.250 kg/ha): 0.0; Herbicide rating (0-9) ECHCG ([6]; 0.500 kg/ha): 0.0; Herbicide rating (0-9) IPOSS (IPOMOEA SPP.; 0.125 kg/ha): 6.0; Herbicide rating (0-9) IPOSS (IPOMOEA SPP.; 0.250 kg/ha): 6.0; Herbicide rating (0-9) IPOSS (IPOMOEA SPP.; 0.500 kg/ha): 6.0
